# Measured values from US11730795B2, “Pharmaceuticals and dosing means for human aging reversal” (INTERVENE IMMUNE, INC., priority 2017, dated 2023).
# What was measured:
# insulin = format: in vivo, human; conditions: for control of GH-induced hyperinsulinemia by single agent: each agent alone with GH
# Description: (§1) Data variability was minimized and controlled by using each volunteer as their own control, and by standardizing the time and day of blood sampling. Blood was generally collected between 7 AM and 10 AM to avoid the effects of circadian and other temporal influences. In addition, patients standardized their pre-testing evening meal, used consistent testing sites and methods, and were redundantly tested between pre-established time points in some cases. All volunteers were asked to take supplements of 3000 IU vitamin D3 and 50 mg of elemental zinc daily. Further, volunteers were instructed not to consume food or alcohol within 4 hours of medication administration.
# (§2) The initial dose of GH was 0.015 mg/kg, injected subcutaneously into superficial abdominal fat using a provided “pen” injector designed for this purpose. GH doses were varied over the time course described above so as to maximize IGF1, and were not adjusted for any changes in body weight.
# Here, for context, insulin blood levels are expressed as a fraction of the distance from the bottom of the normal range to the top of the normal range. Although insulin control was not perfect, the final increase in insulin at trial end was acceptable based on volunteers averaging about one fifth of the upper limit for insulin. […] . Insulin and the normal insulin range were as reported by Quest Diagnostics.
# [1] = 50 mg per day, 65-75 year old men, no GH, ref [46]; cited from earlier work
# [2] = TRIIM trial: testosterone levels and benign prostatic hypertrophy under DHEA; conditions: with GH or GH plus metformin
# Description: Nine normal, putatively healthy 50-65 year-old male volunteers with normal age-related thymic involution were enrolled in and completed a clinical study performed under an IND from the US Food and Drug Administration and separate supervision from a California Institutional Review Board. […] The TRIIM trial (standing for Thymus Regeneration, Immunorestoration, and Insulin Mitigation) treatment period was limited to 12 months. Exclusion criteria included GH use in the prior 10 years, carpal tunnel syndrome, malignancies or high risk of malignancy, BMI greater than 30, PSA above the age-adjusted range, symptomatic prostatic hypertrophy, unstable metabolic disorders, unstable cardiovascular disorders, elevated levels of inflammatory markers, alcoholism, allergy to study medications, cognitive impairment, abnormal metabolic or hormonal results, existing type 1 or type 2 diabetes, or other unstable medical conditions.
# prostate = experiment: Report of one individual: prostatic hypertrophy with DHEA; format: in vivo, human
# Description: Accordingly, our results, methods, and medication compositions and combinations enable beneficial new treatments to improve human health and enable beneficial new drug indications.
# [3] = Tolerability of high metformin doses; format: in vivo, human
# Experimental: We were able to use higher doses with minimal to no difficulty by devising the following dosing methods.
# In these methods, “dinner” need not be taken literally, the essence of the concept being to essentially administer a large virtual dose by combining two smaller doses that are administered within an effective time span, which may be 1-5 hours in duration, but preferably 1-2 hours in duration, to reduce side effects such as gastric distress while still enabling increased control of hyperinsulinemia.
# epigenetic age = conditions: women, ref [35]; cited from earlier work
# CD4/CD8 cell ratio = experiment: TRIIM trial: CD4/CD8 cell ratio; format: in vivo, human; conditions: peak at 3, 6-9 or 12 months in different men; one non-responder
# Description: as §1, §2
# The decline of CD4/CD8 cell ratio with aging is a classical indication of the “immune risk phenotype” or immunosenescence, and appears to occur with or without chronic viral exposure and has been a strong predictor of the short-term risk of death. Our results therefore indicate that prior art methods of regenerating the thymus require improvement. […]
Compound,control of GH-induced hyperinsulinemia by single agent (insulin),glucose tolerance [1],raising of testosterone levels ([2]; doses up to 200 mg),induction of benign prostatic hypertrophy [2],prostatic hypertrophy (prostate; DHEA alone or in combination with metformin),prostatic hypertrophy (prostate; DHEA in combination with both metformin and GH),"control of GH-induced hyperinsulinemia (insulin; 850-1200 mg metformin, morning after GH dose, even with DHEA)","tolerability ([3]; 500 mg with dinner plus 1000 mg with HGH and DHEA, total 1500 mg)","tolerability ([3]; 1500 mg at dinner plus 1000 mg with DHEA and HGH at bedtime, 2500 mg)",tolerability ([3]; 1500 or 2000 mg in one dose with GH at bedtime),effect on epigenetic aging (epigenetic age),insulin level with GH alone (insulin; in vivo),course of CD4/CD8 cell ratio (CD4/CD8 cell ratio)
"C[C@]12CC[C@H](O)CC1=CC[C@@H]1[C@@H]2CC[C@]2(C)C(=O)CC[C@@H]12 [DHEA, dehydroepiandrosterone]",neither agent alone was sufficient,improve glucose tolerance,not found,not found,caused immediate and significant prostatic hypertrophy,actually reversed,,,,,,,
CN(C)C(=N)N=C(N)N [metformin],neither agent alone was sufficient,,,,,,very insufficient,universally well tolerated,well tolerated,well tolerated,not shown to either slow or reverse epigenetic aging,,
human growth hormone [GH],,,,,,,,,,,,rise in insulin,"peaks in the face of a constant or an increasing dose of GH or rise in IGF-1, and thereafter declines"
